In data set [1] the test system is genotype 1b (Con-1) HCV replicon. In words: HCV Replicon Luciferase Assay (genotype 1b). The format is cell-based. The note with it: Hepatitis C virus, 72 h, genotype 1b replicon in Huh-7 cells, Renilla luciferase, 3 days incubation. The method, then:
The cell lines used to evaluate compounds consist of a human hepatocyte derived cell line (Huh-7) that constitutively expresses a genotype 1b (Con-1) HCV replicon or a genotype 1b (Con-1) HCV replicon with an asparagine replacing the cysteine at amino acid 316, or a genotype 2a (JFH-1) replicon, containing a Renilla luciferase reporter gene. These cells were maintained in Dulbecco's modified Eagle medium (DMEM) containing 10% FBS, 100 U/mL penicillin/streptomycin and 1.0 mg/mL G418.
To evaluate compound efficacy, titrated compounds were transferred to sterile 384-well tissue culture treated plates, and the plates were seeded with HCV replicon cells (50 μL at a density of 2.4×10^3 cells/well) in DMEM containing 4% FBS (final DMSO concentration at 0.5%). After 3 days incubation at 37° C., cells were analyzed for Renilla Luciferase activity using the EnduRen substrate (Promega cat #E6485) according to the manufacturer's directions. Briefly, the EnduRen substrate was diluted in DMEM and then added to the plates to a final concentration of 7.5 μM. The plates were incubated for at least 1 h at 37° C. then read on a Viewlux Imager (PerkinElmer) using a luminescence program. The 50% effective concentration (EC50) was calculated using the four-parameter logistic formula noted above.
Compound EC50 data is expressed as A: <100 nM; B=100-1000 nM; C>1000 nM).

The subject of a further data set is HCV. As to conditions: cited from earlier work.

Where two headings read alike, the source gives them in different places.

Regarding `CNC(=O)c1c(-c2ccc(F)cc2)oc2nc(CCC(F)(F)F)c(-c3cccc(C(=O)NC(C4CC4)C4CC4)c3)cc12` [Compound 20008], the half-maximal effective concentration (EC50) in data set [1] (read-out: EC50 1b (class)) was under 0.1 µM. `CNC(=O)c1c(-c2ccc(F)cc2)oc2nc(NCC(F)(F)F)c(-c3cccc(C(=O)NC(C)(C)C(=O)NC)c3)cc12` [Compound 30013]: the EC50 in data set [1] (read-out: EC50 1b (class)) is under 0.1 µM. On the same count and under the same terms, to `CNC(=O)c1c(-c2ccc(F)cc2)oc2nc(CCC(F)(F)F)c(-c3cccc(C(=O)N[C@@H](CO)C4CC4)c3)cc12` [Compound 20006] belongs under 0.1 µM; to `C#CC(C)(C)NC(=O)c1cc(-c2cc3c(C(=O)NC)c(-c4ccc(F)cc4)oc3nc2CCC(F)(F)F)ccc1OC` [Compound 21001], under 0.1 µM. For the compound `CCC(NC(=O)c1cc(-c2cc3c(C(=O)NC)c(-c4ccc(F)cc4)oc3nc2CCC(F)(F)F)ccc1F)C(F)(F)F` (stereo not shown) [Compound 22002], in data set [1] (read-out: EC50 1b (class)), the concentration giving a half-maximal response (EC50) was under 0.1 µM. As for `CNC(=O)c1c(-c2ccc(F)cc2)oc2nc(CCC(F)(F)F)c(-c3cccc(C(=O)NC(C)(C)C(F)(F)F)c3)cc12` [Compound 20001], the EC50 in data set [1] (read-out: EC50 1b (class)) is under 0.1 µM; in data set [1] (read-out: EC50 (uM) 1b), 0.0063 µM. As to `CNC(=O)c1c(-c2ccc(F)cc2)oc2nc(Cl)c(-c3ccc(OC)c(C(=O)NCC(F)(F)C(F)(F)C(F)(F)F)c3)cc12` [Compound 10001], the values for the half-maximal effective concentration (EC50) in data set [1] (read-out: EC50 1b (class)) and in data set [1] (read-out: EC50 (uM) 1b) were 0.1 to 1 µM and 0.149 µM, respectively. Regarding `CNC(=O)c1c(-c2ccc(F)cc2)oc2nc(NCC(F)(F)F)c(-c3cccc(C(=O)NCC(C)(C)CO)c3)cc12` [Compound 30014], the EC50 in data set [1] (read-out: EC50 1b (class)) was under 0.1 µM.

On to `CNC(=O)c1c(-c2ccc(F)cc2)oc2nc(CCC(F)(F)F)c(-c3cccc(C(=O)N[C@@H](COC)C4CC4)c3)cc12` [Compound 20014], for which the EC50 in data set [1] (read-out: EC50 1b (class)) was under 0.1 µM.

In the case of `CNC(=O)c1c(-c2ccc(F)cc2)oc2nc(CCC(F)(F)F)c(-c3cccc(C(=O)NC(COC)C4CC4)c3)cc12` (stereo not shown) [Compound 20016], the figures for the concentration giving a half-maximal response (EC50) in data set [1] (read-out: EC50 1b (class)) and in data set [1] (read-out: EC50 (uM) 1b) were under 0.1 µM and 0.0217 µM, respectively. Regarding `CCC(NC(=O)c1cccc(-c2cc3c(C(=O)NC)c(-c4ccc(F)cc4)oc3nc2NCC(F)(F)F)c1)C(F)(F)F` (stereo not shown) [Compound 30005], the EC50 in data set [1] (read-out: EC50 1b (class)) is under 0.1 µM. In the case of `CNC(=O)c1c(-c2ccc(F)cc2)oc2nc(NCC(F)(F)F)c(-c3cccc(C(=O)NC4(C(=O)OC)CC4)c3)cc12` [Compound 30008], the EC50 in data set [1] (read-out: EC50 1b (class)) is under 0.1 µM.

Take `CNC(=O)c1c(-c2ccc(F)cc2)oc2nc(CCC(F)(F)F)c(-c3cccc(C(=O)NC(C)C(F)(F)F)c3)cc12` (stereo not shown) [Compound 20004]: the 50% effective concentration (EC50) in data set [1] (read-out: EC50 1b (class)) was under 0.1 µM. In the case of `CNC(=O)c1c(-c2ccc(F)cc2)oc2nc(CCC(F)(F)F)c(-c3cccc(C(=O)NCC(C)(C)CO)c3)cc12` [Compound 20026], the 50% effective concentration (EC50) was under 0.1 µM in data set [1] (read-out: EC50 1b (class)) and 0.0043 µM in data set [1] (read-out: EC50 (uM) 1b). Regarding `CNC(=O)c1c(-c2ccc(F)cc2)oc2cc(N(CCO)S(C)(=O)=O)c(C3CC3)cc12` [HCV-796], the hepatic toxicity entry with HCV (extended dosing of the combination regimens) is “hepatic toxicity observed”. Moreover, in the data set with HCV (patients, single agent transient, more robust with interferon and ribavirin), the “HCV RNA levels in patients” value is listed as “reduce HCV RNA levels”. In the case of `CNC(=O)c1c(-c2ccc(F)cc2)oc2nc(NCC(F)(F)F)c(-c3ccc(OC)c(C(=O)NCC(F)(F)C(F)(F)C(F)(F)F)c3)cc12` [Compound 31001], the values for the half-maximal effective concentration (EC50) in data set [1] (read-out: EC50 1b (class)) and in data set [1] (read-out: EC50 (uM) 1b) were under 0.1 µM and 0.014 µM, respectively. As to `C#CC(C)(C)NC(=O)c1cc(-c2cc3c(C(=O)NC)c(-c4ccc(F)cc4)oc3nc2Cl)ccc1OC` [Compound 10002], the 50% effective concentration (EC50) in data set [1] (read-out: EC50 1b (class)) is under 0.1 µM; in data set [1] (read-out: EC50 (uM) 1b), 0.0362 µM. For `CNC(=O)c1c(-c2ccc(F)cc2)oc2nc(NCC(F)(F)F)c(-c3cccc(C(=O)NCC(C)(C)C)c3)cc12` [Compound 30011], in data set [1] (read-out: EC50 1b (class)), the EC50 was under 0.1 µM. Consider `CNC(=O)c1c(-c2ccc(F)cc2)oc2nc(NCC(F)(F)C(F)(F)F)c(-c3ccc(OC)c(C(=O)NC(CF)(CF)CF)c3)cc12` [Compound 41003], for which the EC50 in data set [1] (read-out: EC50 1b (class)) was under 0.1 µM; in data set [1] (read-out: EC50 (uM) 1b), 0.0519 µM. For `CNC(=O)c1c(-c2ccc(F)cc2)oc2nc(CCC(F)(F)F)c(-c3ccc(OC)c(C(=O)NC(CF)(CF)CF)c3)cc12` [Compound 21003], the concentration giving a half-maximal response (EC50) in data set [1] (read-out: EC50 1b (class)) is under 0.1 µM. As to `CNC(=O)c1c(-c2ccc(F)cc2)oc2nc(CCC(F)(F)F)c(-c3cccc(C(=O)NCC(C)(F)F)c3)cc12` [Compound 20035], in data set [1] (read-out: EC50 1b (class)), the EC50 was under 0.1 µM. For `CNC(=O)c1c(-c2ccc(F)cc2)oc2nc(CCC(F)(F)F)c(-c3cccc(C(=O)NCC(F)(F)C(F)(F)C(F)(F)F)c3)cc12` [Compound 20037], the results for the EC50 in data set [1] (read-out: EC50 1b (class)) and in data set [1] (read-out: EC50 (uM) 1b) were under 0.1 µM and 0.0106 µM, respectively.

In the case of `CNC(=O)c1c(-c2ccc(F)cc2)oc2nc(NCC(F)(F)F)c(-c3cccc(C(=O)NC(C)(C)C(F)(F)F)c3)cc12` [Compound 30006], the 50% effective concentration (EC50) in data set [1] (read-out: EC50 1b (class)) was under 0.1 µM; in data set [1] (read-out: EC50 (uM) 1b), 0.0053 µM.

In the case of `CCOC(=O)C(C)(C)NC(=O)c1cccc(-c2cc3c(C(=O)NC)c(-c4ccc(F)cc4)oc3nc2CCC(F)(F)F)c1` [Compound 20029], the concentration giving a half-maximal response (EC50) in data set [1] (read-out: EC50 1b (class)) is under 0.1 µM. Still for that read-out and setting: as for `CNC(=O)c1c(-c2ccc(F)cc2)oc2nc(NCC(F)(F)F)c(-c3ccc(OC)c(C(=O)NC(CF)(CF)CF)c3)cc12` [Compound 31002], the figure is under 0.1 µM; as for `CNC(=O)c1c(-c2ccc(F)cc2)oc2nc(NCC(F)(F)F)c(-c3cccc(C(=O)NC(C)(C)CO)c3)cc12` [Compound 30010], under 0.1 µM. `CNC(=O)c1c(-c2ccc(F)cc2)oc2nc(NCC(F)(F)F)c(-c3cccc(C(=O)NC(C)(C)c4ccccc4)c3)cc12` [Compound 30015]: the concentration for a half-maximal effect (EC50) in data set [1] (read-out: EC50 1b (class)) was under 0.1 µM; in data set [1] (read-out: EC50 (uM) 1b), 0.0067 µM. As to `CNC(=O)c1c(-c2ccc(F)cc2)oc2nc(NCC(F)(F)C(F)(F)F)c(-c3ccc(OC)c(C(=O)NC(C)(C)C)c3)cc12` [Compound 41001], in data set [1] (read-out: EC50 1b (class)), the EC50 is under 0.1 µM. For the compound `[2H]C([2H])([2H])C(NC(=O)c1cccc(-c2cc3c(C(=O)NC)c(-c4ccc(F)cc4)oc3nc2NCC(F)(F)C(F)(F)F)c1)(C([2H])([2H])[2H])C([2H])([2H])[2H]` [Compound 40003], the 50% effective concentration (EC50) in data set [1] (read-out: EC50 1b (class)) fell in the range of 0.1 to 1 µM.

Source of the values: patent US9957278B2, “Furopyridine compounds for the treatment of hepatitis C” (BRISTOL-MYERS SQUIBB COMPANY, priority 2014, dated 2018).
